{"source": "patent US4609496A", "about": "“Steroid esters of N-(2-halogenoethyl)-N-nitroso-carbamoyl-amino acids and peptides thereof, as well as methods for preparing them” (Stiftung Deutsches Krebsforshungszentrum, priority 1982, dated 1986)", "key": {"estrogen receptor": {"target": "estrogen receptor (Homo sapiens, UniProt P03372)", "sequence (P03372 whole entry)": "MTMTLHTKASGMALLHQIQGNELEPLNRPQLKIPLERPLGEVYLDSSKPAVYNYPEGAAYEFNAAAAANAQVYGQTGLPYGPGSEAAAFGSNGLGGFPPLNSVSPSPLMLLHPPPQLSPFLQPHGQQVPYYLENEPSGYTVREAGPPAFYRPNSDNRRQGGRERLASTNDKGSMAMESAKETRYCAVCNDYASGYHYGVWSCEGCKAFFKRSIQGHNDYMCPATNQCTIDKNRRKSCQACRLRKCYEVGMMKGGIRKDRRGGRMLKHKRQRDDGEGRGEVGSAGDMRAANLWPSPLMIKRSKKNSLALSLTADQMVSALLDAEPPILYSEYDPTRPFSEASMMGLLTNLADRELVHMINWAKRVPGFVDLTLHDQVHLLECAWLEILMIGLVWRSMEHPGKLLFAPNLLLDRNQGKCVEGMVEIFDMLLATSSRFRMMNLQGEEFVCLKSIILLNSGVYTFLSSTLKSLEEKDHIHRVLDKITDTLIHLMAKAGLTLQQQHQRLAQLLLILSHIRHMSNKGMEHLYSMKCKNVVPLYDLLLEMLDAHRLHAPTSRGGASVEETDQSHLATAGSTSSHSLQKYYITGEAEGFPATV", "assay": "biochemical", "details": "for affinity relative to estradiol (100%): parameter of 50% bonding inhibition of 3H-tagged estradiol", "excerpt": "The estrogen-linked compounds were subjected to an estrogen receptor test (Lebercytosol) (Kranzfelder, Schneider, von Angerer, Schoneberger, J. Cancer Research Chim. Oncol. 97, 167-186 (1980))."}, "rat leukemia L 5222": {"system": "rat leukemia L 5222", "assay": "Therapy test using the model of rat leukemia L 5222", "format": "in vivo", "details": "for optimal dose: L 5222", "excerpt": "In the therapy test using the model of rat leukemia L 5222 (Ivankovic, Zeller, Leukamie L 5222 des Rattenstammes BD IX. Eine durch Athylnitrosoharnstoff induzierte monozytar-myeloische, transplantierbare Form fur zytochemische und chemotherapeutische Studien [Leukemia L 5222 of Rats of Stock BD IX. A monocytic-myeloid, transplantable form induced by ethylnitrosourea for cytochemical and chemotherapeutic studies]. Blut [Blood], 28; 288-292, 1974 and Zeller, Ivankovic, Schmahl, Cancer Research, Vol. 35, 1168-1174, 1975), the cortisone conjugate has good activity. At 176 mg/kg, the total median (replicated experiment!) at 65 days was 3 cured animals out of 6, while with CNU alanine in an equimolar dose with cortisone no cures were attained, with a median survival time of 20 days."}, "[1]": {"assay": "Toxicity of the compounds (LD50)", "format": "in vivo", "details": "for LD50 at 2160 h: in vivo, period of observation: 90 days (printed with the cortisone ester)", "excerpt": "Data on the toxicity of the compounds"}}}
{"smiles": "C[C@H](NC(=O)N(CCCl)N=O)C(=O)Oc1ccc2c(c1)CC[C@@H]1[C@@H]2CC[C@]2(C)C(=O)CC[C@@H]12", "note": "[N-(2-chloroethyl)-N-nitroso-carbamoyl-L-alanine-estrone-ester]", "values": [{"measurement": "IC50", "setting": "estrogen receptor", "value": 0.19, "unit": "µM"}, {"measurement": "affinity relative to estradiol (100%)", "setting": "estrogen receptor", "value": 4, "unit": "%"}, {"measurement": "optimal dose", "setting": "rat leukemia L 5222", "value": 351, "unit": "mg/kg"}, {"measurement": "toxicity measured in tumor-bearing animals", "setting": "rat leukemia L 5222; compared with the cortisone derivative", "value": "even lower than with the cortisone derivative"}, {"measurement": "total median (survival)", "setting": "rat leukemia L 5222; optimal dose 351 mg/kg", "value": 43, "unit": "days"}]}
{"smiles": "C[C@H](NC(=O)N(CCCl)N=O)C(=O)O", "note": "[CNU alanine, reference compound]", "values": [{"measurement": "cures", "setting": "rat leukemia L 5222; equimolar dose with cortisone", "value": "no cures"}, {"measurement": "median survival time", "setting": "rat leukemia L 5222; equimolar dose with cortisone", "value": 20, "unit": "days"}, {"measurement": "LD50 at 2160 h", "setting": "[1]", "value": "40 to 50", "unit": "mg/kg"}]}
{"smiles": "CC(NC(=O)N(CCCl)N=O)C(=O)OCC(=O)C1(O)CCC2C3CCC4=CC(=O)CCC4(C)C3C(=O)CC21C", "note": "[N-(2-chloroethyl)-N-nitroso-carbamoyl-L-alanine-cortisone-21-ester]", "values": [{"measurement": "cured animals", "setting": "rat leukemia L 5222; 176 mg/kg", "value": "3 cured animals out of 6"}, {"measurement": "total median (survival)", "setting": "rat leukemia L 5222; 176 mg/kg, replicated experiment", "value": 65, "unit": "days"}, {"measurement": "activity in therapy test", "setting": "rat leukemia L 5222; rat leukemia L 5222", "value": "good activity"}, {"measurement": "LD50 at 2160 h", "setting": "[1]", "value": "220 to 280", "unit": "mg/kg"}, {"measurement": "reduction in toxicity by linking CNU alanine with cortisone", "setting": "[1]; relative to CNU alanine", "value": "sharp reduction in toxicity (by approximately threefold)"}]}
{"smiles": "C[C@H](NC(=O)N(CCCl)N=O)C(=O)Oc1ccc2c(c1)CC[C@@H]1[C@@H]2CC[C@]2(C)[C@@H](O)CC[C@@H]12", "note": "[N-(2-chloroethyl)-N-nitroso-carbamoyl-L-alanine-estradiol-3-ester]", "values": [{"measurement": "IC50", "setting": "estrogen receptor", "value": 0.05, "unit": "µM"}, {"measurement": "affinity relative to estradiol (100%)", "setting": "estrogen receptor", "value": 16, "unit": "%"}, {"measurement": "optimal dose", "setting": "rat leukemia L 5222", "value": 279, "unit": "mg/kg"}, {"measurement": "cures", "setting": "rat leukemia L 5222; optimal dose 279 mg/kg", "value": 2, "unit": "cures"}, {"measurement": "median survival time", "setting": "rat leukemia L 5222; optimal dose 279 mg/kg", "value": 49, "unit": "days"}]}
